Source: ChEMBL document CHEMBL1141597, “2-Alkyl-4-aryl-pyrimidine fused heterocycles as selective 5-HT2A antagonists” (Bioorg Med Chem Lett, 2008)
The source made the active and inactive calls. The rule behind the calls is not given here.

Key:
[1] = target: T1, 5-hydroxytryptamine receptor 2C (Homo sapiens, UniProt P28335); experiment: Displacement of [3H]mesulergine from human recombinant 5HT2C receptor expressed in CHO cells; type: cell-based
T1 sequence (P28335 whole entry): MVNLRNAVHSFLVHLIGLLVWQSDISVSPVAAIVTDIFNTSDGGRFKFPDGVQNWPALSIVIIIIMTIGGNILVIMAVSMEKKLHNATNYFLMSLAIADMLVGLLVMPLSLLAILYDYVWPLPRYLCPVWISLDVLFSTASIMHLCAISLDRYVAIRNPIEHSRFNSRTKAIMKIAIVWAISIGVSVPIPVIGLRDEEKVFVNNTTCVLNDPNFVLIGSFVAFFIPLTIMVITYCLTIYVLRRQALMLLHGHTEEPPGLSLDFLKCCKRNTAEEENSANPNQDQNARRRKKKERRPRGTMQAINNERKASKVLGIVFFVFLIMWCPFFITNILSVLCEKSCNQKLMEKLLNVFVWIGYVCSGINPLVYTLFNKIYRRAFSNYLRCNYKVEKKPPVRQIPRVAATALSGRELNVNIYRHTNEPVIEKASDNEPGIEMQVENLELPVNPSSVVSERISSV

[2] = target: T2, 5-hydroxytryptamine receptor 2B (Homo sapiens, UniProt P41595); experiment: Displacement of [3H]mesulergine from human recombinant 5HT2B receptor expressed in CHO cells; type: cell-based
T2 sequence (P41595 whole entry): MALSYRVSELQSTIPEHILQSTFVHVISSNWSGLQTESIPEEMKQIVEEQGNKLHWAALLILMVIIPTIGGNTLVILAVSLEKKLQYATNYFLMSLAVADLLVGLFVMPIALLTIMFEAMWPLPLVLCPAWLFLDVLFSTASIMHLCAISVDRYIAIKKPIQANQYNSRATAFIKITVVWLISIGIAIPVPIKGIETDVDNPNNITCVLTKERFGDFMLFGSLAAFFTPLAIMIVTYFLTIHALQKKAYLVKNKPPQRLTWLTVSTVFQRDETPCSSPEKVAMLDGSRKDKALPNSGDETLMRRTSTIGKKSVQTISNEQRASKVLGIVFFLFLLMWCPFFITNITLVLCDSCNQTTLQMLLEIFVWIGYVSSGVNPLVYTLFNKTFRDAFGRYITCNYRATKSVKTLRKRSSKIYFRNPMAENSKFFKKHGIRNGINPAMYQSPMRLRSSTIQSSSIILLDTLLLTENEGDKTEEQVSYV

[3] = target: T3, 5-hydroxytryptamine receptor 2A (Homo sapiens, UniProt P28223); experiment: Displacement of [3H]ketanserin from human recombinant 5HT2A receptor expressed in mouse NIH3T3 cells; type: cell-based
T3 sequence (P28223 whole entry): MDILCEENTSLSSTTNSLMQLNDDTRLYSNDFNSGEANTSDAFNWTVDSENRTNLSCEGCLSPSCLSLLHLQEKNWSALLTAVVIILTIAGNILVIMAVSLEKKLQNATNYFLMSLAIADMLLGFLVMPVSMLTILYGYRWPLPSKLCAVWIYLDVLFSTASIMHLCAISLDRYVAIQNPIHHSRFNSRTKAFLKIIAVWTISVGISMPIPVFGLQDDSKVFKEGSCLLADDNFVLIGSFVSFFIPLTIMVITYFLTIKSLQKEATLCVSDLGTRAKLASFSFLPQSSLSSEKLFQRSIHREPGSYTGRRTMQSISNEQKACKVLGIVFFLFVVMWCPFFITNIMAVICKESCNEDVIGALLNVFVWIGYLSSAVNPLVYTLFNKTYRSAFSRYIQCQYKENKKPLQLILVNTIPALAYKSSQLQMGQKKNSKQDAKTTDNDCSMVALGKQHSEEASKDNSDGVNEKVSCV

[4] = target: T2, 5-hydroxytryptamine receptor 2B; experiment: Antagonist activity at human recombinant 5HT2B receptor expressed in CHO cells assessed as increase in calcium levels; type: functional, cell-based
[5] = target: T3, 5-hydroxytryptamine receptor 2A; experiment: Binding affinity at 5HT2A receptor
[6] = target: T2, 5-hydroxytryptamine receptor 2B; experiment: Binding affinity at 5HT2B receptor
[7] = target: T1, 5-hydroxytryptamine receptor 2C; experiment: Binding affinity at 5HT2C receptor
[8] = target: T3, 5-hydroxytryptamine receptor 2A; conditions: NIH3T3
Description: Antagonist activity at human recombinant 5HT2A receptor expressed in mouse NIH3T3 cells assessed as increase in calcium levels

Row | Structure (SMILES) | Ki [1] | Ki [2] | Ki [3] | further results
1 | COc1ccc(-c2nc(C3CCCC3)nc3c2CCNCC3)cc1 | 120 nM | 4.8 nM | 11 nM | –
2 | N#Cc1ccc(-c2nc(C3CCCC3)nc3c2CCNCC3)cc1 | 460 nM | 20 nM | 34 nM | –
3 | Fc1ccc(-c2nc(Cc3ccccc3)nc3c2CNCCC3)cc1 | 5000 nM | 10000 nM | – | –
4 | Fc1ccc(-c2nc(Cc3ccccc3)nc3c2CCNC3)cc1 | – | 310 nM | 9 nM | –
5 | Fc1ccc(-c2nc(C3CCC3)nc3c2CNCC3)cc1 | 410 nM | 210 nM | 11 nM | –
6 | Cc1nc2sccn2c(=O)c1CCN1CCC(=C(c2ccc(F)cc2)c2ccc(F)cc2)CC1 | – | – | – | Activity [4]: inactive
7 | Fc1ccc(-c2nc(C3CC3)nc3c2CNCC3)cc1 | 5000 nM | – | 40 nM | –
8 | CCN(CC)c1nc2c(c(-c3ccc(C)cc3)n1)CNCC2 | – | – | – | Ki [5]: 20 nM; Ki [6]: 70 nM; Ki [7]: 300 nM
9 | Cc1nc2c(c(-c3ccc(Cl)cc3)n1)CCNCC2 | 5000 nM | 270 nM | 1200 nM | –
10 | CC(C)(C)c1nc2c(c(-c3ccc(F)cc3)n1)CNCC2 | 100 nM | – | 5 nM | –
11 | Fc1ccc(-c2nc(C3CCCC3)nc3c2CNCC3)cc1 | 110 nM | 220 nM | 2.2 nM | Activity [4]: inactive; pKb [8]: 8.1
12 | Cc1nc2n(c(=O)c1CCN1CCC(c3noc4cc(F)ccc34)CC1)CCCC2 | – | – | – | Activity [4]: inactive
13 | Fc1ccc(-c2nc(Cc3ccccc3)nc3c2CNCC3)cc1 | 400 nM | 2500 nM | 20 nM | –
14 | Cc1ccc(-c2nc(Cc3ccccc3)nc3c2CCNCC3)cc1 | 15 nM | – | 0.4 nM | –
15 | Fc1ccc(-c2nc(Cc3ccccc3)nc3c2CCNCC3)cc1 | – | – | 0.6 nM | –
16 | Cc1ccc(-c2nc(C3CCCC3)nc3c2CCNCC3)cc1 | 23 nM | – | – | –
17 | Fc1ccc(-c2nc(Cc3ccccc3)nc3c2CCCNC3)cc1 | 150 nM | – | 8.8 nM | –
18 | Fc1ccc(-c2nc(C3CCCC3)nc3c2CCNCC3)cc1 | – | – | 13 nM | –
19 | CC(C)c1nc2c(c(-c3ccc(F)cc3)n1)CCNCC2 | – | – | 4 nM | –
20 | Fc1ccc(Cc2nc3c(c(-c4ccc(F)cc4)n2)CNCC3)cc1 | – | – | 13 nM | Activity [4]: inactive; pKb [8]: 7.1
21 | Fc1ccc(Cc2nc3c(c(-c4ccc(F)cc4)n2)CCNCC3)cc1 | – | – | 0.7 nM | Activity [4]: inactive; pKb [8]: 8.2
22 | CN(C)CCO/N=C(/C=C/c1ccc(O)cc1)c1ccccc1F | – | – | – | Activity [4]: inactive
23 | Fc1ccc(-c2nc(-c3ccccc3)nc3c2CNCC3)cc1 | – | – | 50 nM | –
24 | COc1cccc(C(O)C2CCN(CCc3ccc(F)cc3)CC2)c1OC (single isomer, unassigned) | – | – | – | Activity [4]: inactive
25 | FC(F)(F)c1ccc(-c2nc(Cc3ccccc3)nc3c2CCNCC3)cc1 | – | – | 0.8 nM | –
